The values below are quoted from earlier work in PubChem BioAssay AID1259409 (Chemical Carcinogenesis Research Information System (CCRIS), 2018).

The subject of this data set is rodent chemically induced tumor inhibition, incidence and multiplicity. The data set can be described thus: CCRIS tumor inhibitor studies.

Consider `O=C(O)[C@@H]1CCCN1` (tested in a mixture with another compound), for which the “tumour outcome (control, treated, inhibition, significance)” value is 22/23 (96%), 5/23 (22%), 77%, p<0.001 (Carcinogen: N-NITROSODIETHYLAMINE, 55-18-5, Dose [Inhibitor]: 0, 50 MG/KG 2/WK 1 HR PRIOR TO AND 24 HR POST CARCINOGEN TREATMENT FOR 10 WK (STUDY DURATION: 28 WK), Route [Inhibitor]: INTRAPERITONEAL, Species: RAT, Strain/Sex: BD-6/MALE, Target Tissue: Type of Lesion: LIVER: TUMOR, Dose [Carcinogen]: 80 MG/KG 1/WK FOR 10 WK, Promoter: NONE USED); 22/23 (96%), 9/21 (43%), 55%, p<0.001 (Carcinogen: N-NITROSODIETHYLAMINE, 55-18-5, Dose [Inhibitor]: 0, 100 MG/KG 2/WK 1 HR PRIOR TO AND 24 HR POST CARCINOGEN TREATMENT FOR 10 WK (STUDY DURATION: 28 WK), Route [Inhibitor]: INTRAPERITONEAL, Species: RAT, Strain/Sex: BD-6/MALE, Target Tissue: Type of Lesion: LIVER: TUMOR, Dose [Carcinogen]: 80 MG/KG 1/WK FOR 10 WK, Promoter: NONE USED); 22/23 (96%), 8/20 (40%), 58%, not calculated (Carcinogen: N-NITROSODIETHYLAMINE, 55-18-5, Dose [Inhibitor]: 0, 100 MG/KG 2/WK 1 HR PRIOR TO AND 24 HR POST CARCINOGEN TREATMENT FOR 10 WK (STUDY DURATION: 40 WK), Route [Inhibitor]: INTRAPERITONEAL, Species: RAT, Strain/Sex: BD-6/MALE, Target Tissue: Type of Lesion: LIVER: TUMOR, Dose [Carcinogen]: 80 MG/KG 1/WK FOR 10 WK, Promoter: NONE USED).
With `CC(C)=CCOc1c2occc2cc2ccc(=O)oc12`, the “tumour outcome (control, treated, inhibition, significance)” value (Carcinogen: 7,12-DIMETHYLBENZ[A]ANTHRACENE, 57-97-6, Dose [Inhibitor]: 0, 400 NMOL 1/WK FOR 45 WK APPLIED 5 MIN PRIOR TO EACH CARCINOGEN DOSE (STUDY DURATION: 45 WK), Route [Inhibitor]: DERMAL, Species: MOUSE, Strain/Sex: SENCAR, Target Tissue: Type of Lesion: SKIN: PAPILLOMA, Dose [Carcinogen]: 50 NMOL 1/WK FOR 45 WK, Promoter: NONE USED) was 97%, 60%, 38%, p<0.05; the “tumour outcome (control, treated, inhibition, significance)” value (Carcinogen: 7,12-DIMETHYLBENZ[A]ANTHRACENE, 57-97-6, Dose [Inhibitor]: 0, 400 NMOL ONCE APPLIED 5 MIN PRIOR TO CARCINOGEN DOSE (STUDY DURATION: 25 WK), Route [Inhibitor]: DERMAL, Species: MOUSE, Strain/Sex: SENCAR, Target Tissue: Type of Lesion: SKIN: PAPILLOMA, Dose [Carcinogen]: 10 NMOL ONCE, Promoter: 12-O-TETRADECANOYLPHORBOL-13-ACETATE, 16561-29-8) is recorded as 93%, 93%, 0%, not significant; the “tumour outcome (control, treated, inhibition, significance)” value (Carcinogen: 7,12-DIMETHYLBENZ[A]ANTHRACENE, 57-97-6, Dose [Inhibitor]: 0, 800 NMOL ONCE APPLIED 5 MIN PRIOR TO CARCINOGEN DOSE (STUDY DURATION: 25 WK), Route [Inhibitor]: DERMAL, Species: MOUSE, Strain/Sex: SENCAR, Target Tissue: Type of Lesion: SKIN: PAPILLOMA, Dose [Carcinogen]: 200 NMOL ONCE, Promoter: 12-O-TETRADECANOYLPHORBOL-13-ACETATE, 16561-29-8) is 93%, 75%, 19%, not significant; the “tumour outcome (control, treated, inhibition, significance)” value (Carcinogen: 7-12-DIMETHYLBENZ[A]ANTHRACENE, 57-97-6, Dose [Inhibitor]: 0, 400 NMOL 1/WK FOR 45 WK APPLIED 5 MIN PRIOR TO EACH CARCINOGEN DOSE (STUDY DURATION: 45 WK), Route [Inhibitor]: DERMAL, Species: MOUSE, Strain/Sex: SENCAR, Target Tissue: Type of Lesion: SKIN: CARCINOMA, Dose [Carcinogen]: 50 NMOL 1/WK FOR 45 WK) is on record as 90%, 53%, 41%, not calculated; the “tumour outcome (control, treated, inhibition, significance)” value (Carcinogen: 7-12-DIMETHYLBENZ[A]ANTHRACENE, 57-97-6, Dose [Inhibitor]: 0, 800 NMOL 1/WK FOR 45 WK APPLIED 5 MIN PRIOR TO EACH CARCINOGEN DOSE (STUDY DURATION: 45 WK), Route [Inhibitor]: DERMAL, Species: MOUSE, Strain/Sex: SENCAR, Target Tissue: Type of Lesion: SKIN: CARCINOMA, Dose [Carcinogen]: 50 NMOL 1/WK FOR 45 WK) is recorded as 90%, 37%, 59%, not calculated; the “tumour outcome (control, treated, inhibition, significance)” value (Carcinogen: 7-12-DIMETHYLBENZ[A]ANTHRACENE, 57-97-6, Dose [Inhibitor]: 0, 800 NMOL 1/WK FOR 45 WK APPLIED 5 MIN PRIOR TO EACH CARCINOGEN DOSE (STUDY DURATION: 45 WK), Route [Inhibitor]: DERMAL, Species: MOUSE, Strain/Sex: SENCAR, Target Tissue: Type of Lesion: SKIN: PAPILLOMA, Dose [Carcinogen]: 50 NMOL 1/WK FOR 45 WK) is given as 97%, 53%, 45%, p<0.05. Moreover, the “tumour outcome (control, treated, inhibition, significance)” value is, setting by setting: (Carcinogen: BENZO[A]PYRENE, 50-32-8, Dose [Inhibitor]: 0, 800 NMOL ONCE APPLIED 5 MIN PRIOR TO CARCINOGEN DOSE (STUDY DURATION: 25 WK), Route [Inhibitor]: DERMAL, Species: MOUSE, Strain/Sex: SENCAR, Target Tissue: Type of Lesion: SKIN: PAPILLOMA, Dose [Carcinogen]: 200 NMOL ONCE, Promoter: 12-O-TETRADECANOYLPHORBOL-13-ACETATE, 16561-29-8) 92%, 92%, 0%, not significant; (Carcinogen: BENZO[A]PYRENE, 50-32-8, Dose [Inhibitor]: 0, 1600 NMOL ONCE APPLIED 5 MIN PRIOR TO CARCINOGEN DOSE (STUDY DURATION: 25 WK), Route [Inhibitor]: DERMAL, Species: MOUSE, Strain/Sex: SENCAR, Target Tissue: Type of Lesion: SKIN: PAPILLOMA, Dose [Carcinogen]: 200 NMOL ONCE, Promoter: 12-O-TETRADECANOYLPHORBOL-13-ACETATE, 16561-29-8) 92%, 85%, 8%, not significant.
As to `CS(=O)CCCCN=C=S` (configuration not stated), the “tumour outcome (control, treated, inhibition, significance)” value by setting is: (Carcinogen: 4-(METHYLNITROSAMINO)-1-(3-PYRIDYL)-1-BUTANONE (NNK) [64091-91-4], Dose [Inhibitor]: 1.5 UM/G DIET, BEGINNING 13 WKS AFTER CARCINOGEN/PROMOTER TREATMENT (STUDY DURATION: 42 WK), Route [Inhibitor]: DIET, Species: MOUSE, Strain/Sex: A/J/FEMALE (39,?)/(20,?), Target Tissue: Type of Lesion: LUNG: ADENOCARCINOMA, Dose [Carcinogen]: 3 µM WEEKLY FOR 8 DOSES, Promoter: BENZO[A]PYRENE [50-32-8]) 42%, 20%, 52%, not significant; (Carcinogen: 4-(METHYLNITROSAMINO)-1-(3-PYRIDYL)-1-BUTANONE (NNK) [64091-91-4], Dose [Inhibitor]: 1.5 UM/G DIET, BEGINNING 13 WKS AFTER CARCINOGEN/PROMOTER TREATMENT (STUDY DURATION: 42 WK), Route [Inhibitor]: DIET, Species: MOUSE, Strain/Sex: A/J/FEMALE (39,?)/(20,?), Target Tissue: Type of Lesion: LUNG: ADENOMA, Dose [Carcinogen]: 3 µM WEEKLY FOR 8 DOSES, Promoter: BENZO[A]PYRENE [50-32-8]) 100%, 100%, 0%, not significant; (Carcinogen: 4-(METHYLNITROSAMINO)-1-(3-PYRIDYL)-1-BUTANONE (NNK) [64091-91-4], Dose [Inhibitor]: 3 UM/G DIET, BEGINNING 13 WKS AFTER CARCINOGEN/PROMOTER TREATMENT (STUDY DURATION: 42 WK), Route [Inhibitor]: DIET, Species: MOUSE, Strain/Sex: A/J/FEMALE (39,?)(32,?), Target Tissue: Type of Lesion: LUNG: ADENOCARCINOMA, Dose [Carcinogen]: 3 µM WEEKLY FOR 8 DOSES, Promoter: BENZO[A]PYRENE [50-32-8]) 42%, 28%, 33%, not significant; (Carcinogen: 4-(METHYLNITROSAMINO)-1-(3-PYRIDYL)-1-BUTANONE (NNK) [64091-91-4], Dose [Inhibitor]: 3 UM/G DIET, BEGINNING 13 WKS AFTER CARCINOGEN/PROMOTER TREATMENT (STUDY DURATION: 42 WK), Route [Inhibitor]: DIET, Species: MOUSE, Strain/Sex: A/J/FEMALE (39,?)/(32,?), Target Tissue: Type of Lesion: LUNG: ADENOMA, Dose [Carcinogen]: 3 µM WEEKLY FOR 8 DOSES, Promoter: BENZO[A]PYRENE [50-32-8]) 100%, 93%, 7%, not significant; (Carcinogen: 7,12-DIMETHYLBENZ[A]ANTHRACENE, 57-97-6, Dose [Inhibitor]: 0, 75 UMOL/D IN 0.5 ML EMULPHOR EL-620 FOR 5 CONSECUTIVE DAYS BEGINNING AT 47 D OF AGE (STUDY DURATION: 155 D), Route [Inhibitor]: GAVAGE, Species: RAT, Strain/Sex: SPRAGUE-DAWLEY/FEMALE, Target Tissue: Type of Lesion: MAMMARY GLAND: TUMOR, Dose [Carcinogen]: 8 MG IN 1 ML SESAME OIL ONCE AT 50 D OF AGE, Promoter: NONE USED) 17/25 (68%), 7/20 (35%), 49%, p<0.05; (Carcinogen: 7,12-DIMETHYLBENZ[A]ANTHRACENE, 57-97-6, Dose [Inhibitor]: 0, 150 UMOL/D IN 0.5 ML EMULPHOR EL-620 FOR 5 CONSECUTIVE DAYS BEGINNING AT 47 D OF AGE (STUDY DURATION: 155 D), Route [Inhibitor]: GAVAGE, Species: RAT, Strain/Sex: SPRAGUE-DAWLEY/FEMALE, Target Tissue: Type of Lesion: MAMMARY GLAND: TUMOR, Dose [Carcinogen]: 8 MG IN 1 ML SESAME OIL ONCE AT 50 D OF AGE, Promoter: NONE USED) 17/25 (68%), 5/19 (26%), 62%, p<0.05.
